# Values quoted from earlier work in US6955812B2, “Health food and preparation having an anti-obesity effect” (Mitsubishi Heavy Industries, Ltd., priority 2001, dated 2005).
# Tested on: HepG2 cells
# Conditions: cultured HepG2 cells of a human liver model; from Japanese patent application No. 2000-202404
smiles,measurement,value
NC(CO)CS(=O)(=O)O [D-cysteinolic acid],effect on neutral fat (triglyceride),greatly suppressing
